Several values for one entry are separate records, joined by “and”; a condition that tells them apart may be missing. Identical values can stand only once. Counter-ions that a name gives are not always drawn. Like-named read-outs stand apart in the source and are kept apart here. Values belong to the molecule of their own block, whether it stands above or below them.
Legend:
MCL-1 = MCL-1 (Homo sapiens (Human), UniProt Q07820, K194A/K197A/R201A); test: Protein-protein interaction assay MCL-1/Noxa BH3 peptide (MCL-1 assay), TR-FRET; format: binding; details: MCL-1/Noxa BH3 peptide TR-FRET; median
Method: Protein-Protein Interaction Assay: MCL-1/Noxa BH3 Peptide (MCL-1 Assay)
The dose-dependent inhibition by the compounds described in this invention of the interaction between MCL-1 and the BH3 domain of Noxa (both human) was determined using a steady state binding competition assay with time-resolved fluorescence energy transfer (TR-FRET) readout. For that purpose MCL-1 (amino acids 173-321, N-terminal fused to Maltose Binding Protein (MBP) SEQ ID 1)) and a synthetic Noxa BH3-derived peptide of sequence Biotin-PEG2-PEG2-PAELEVE-Nva-ATQLRRFGDKLNFRQKLL-amide (SEQ ID 2) served as protein receptor and tracer ligand respectively. The MBP-MCL-1 was purchased from Beryllium (Bedford, Mass., USA). The expression and purification of this protein construct has been described elsewhere (DOI:10.1371/journal.pone.0125010). The Noxa BH3-derived peptide can be obtained from e.g. Biosyntan (Berlin, Germany).
In the assay 11 different concentrations of each compound (0.1 nM, 0.33 nM, 1.1 nM, 3.8 nM, 13 nM, 44 nM, 0.15 μM, 0.51 μM, 1.7 μM, 5.9 μM and 20 μM) were typically measured as duplicates in the same microtiter plate. For that, 100-fold concentrated DMSO solutions were prepared by serial dilutions (1:3.4) of a 2 mM stock solution in a clear, 384-well microtiter plate (Greiner Bio-One, Frickenhausen, Germany). From there, 50 nl were transferred in a dark test plate (Greiner Bio-One, Frickenhausen, Germany). The assay was initiated by addition of 2 μl of a 2,5-fold concentrated MBP-MCL-1 solution (usually for a 1 nM end concentration in 5 μl reaction volume) in aqueous assay buffer [50 mM Tris/HCl pH 7, 100 mM sodium chloride (NaCl), 50 mM potassium fluoride (KF), 0.005% Tween-20, 2 mM DTT, 0.1% bovine gamma globulin (BGG)] to the compounds in the assay plate. This was followed by a 10-minute incubation step at 22° C. for pre-equilibration of the putative complex between MBP-MCL-1 and the compounds. After that, 3 μl of a 1.67-fold concentrated solution (in assay buffer) consisting of Noxa BH3-derived peptide (1 nM end concentration) and TR-FRET detection reagents [1.67 nM anti-MBP-Eu cryptate and 1.67 nM streptavidin-XL665 (both from Cisbio Bioassays, Codolet, France)], were added.
The mixture was incubated in the dark for one hour at 22° C. and then overnight at 4° C. The formation of MCL-1/Noxa complexes was determined by measuring the resonance energy transfer of the anti-MBP-Eu-cryptate antibody to the streptavidin-XL665 present in the reaction. For that purpose, the fluorescence emission at 620 nm and 665 nm after excitation at 330-350 nm was measured in a TR-FRET measuring instrument, for instance a Rubystar or a Pherastar (both from BMG Lab Technologies, Offenburg, Germany) or a Viewlux (Perkin-Elmer). The ratio of the emission at 665 nm and at 622 nm was used as indicator of the amount of MCL-1/NOXA complexes present.
The resulting data (ratio) were normalized, taking 0% inhibition as the mean value of control measurements (usually 32 data points) where all reagents were included. In this case 50 nl DMSO were used instead of compounds. A 100% inhibition corresponded to the mean value of control measurements (usually 32 data points) where all reagents except MCL-1 were included. IC50 values were determined by regression analysis based on a 4 parameter equation (minimum, maximum, IC50, Hill; Y=Max+(Min−Max)/(1+(X/IC50)^Hill) using the Screener Software (Genedata).

SUDHL5 [1] = test: Induction of cytotoxicity, SUDHL5 (Assay 6); details: read-out: IC50 Cytotox SUDHL5 [M] (median), SUDHL5 cells, 5 h, CellTiter-Glo
SUDHL10 [2] = test: Induction of cytotoxicity, SUDHL10 (Assay 6); details: read-out: IC50 Cytotox SUDHL10 [M] (median), SUDHL10 cells, 5 h, CellTiter-Glo
Method: In principle, compounds that induce apoptosis will concomitantly induce cell cytotoxicity. Therefore, cytotoxicity assays were run in parallel in SUDHL5 and SUDHL10 cells.
The different cell lines were plated in culture medium (RPMI 1640 [GIBCO #22400-089] supplemented with 10% Fetal Bovine Serum) at a density of 3,300 cells in 30 μl/well in a sterile, solid black, flat bottom, polystyrene, TC-treated 384-well microplate (Corning #3571) using Multidrop Combi Reagent Dispenser. As a control, medium without cells was also added to the plate. Cells were incubated in a humidified incubator at 37° C. overnight. On the next day, the cells were treated with compounds (stock solution, 10 mM in DMSO) using the HP D300 Digital Dispenser in a concentration range of 3.3×10e-5 M (33 μM) to 5×10e-9 M (5 nM) in a single-dot curve with at least 16 dilutions and a DMSO concentration of 0.33%. Rim wells were excluded. The cells were incubated for 5 h hours in a humidified incubator at 37° C. After this incubation, 30 μl of CellTiter-Glo® Luminescent Cell Viability reagent (Promega, G7573) was added to each well using the Multidrop Combi Reagent Dispenser, followed by 15 min incubation on a shaker at room temperature. Finally, luminescence was read at 0.1 ms, with a gain of 3000 using the PHERAstar FS microplate reader (BMG Labtech).
The Bella DRC Master Sheet was used to calculate IC50s, with fixed CI=0 and C0=1.

SUDHL5 [3] = test: Induction of caspase-3/7 activity, SUDHL5 (Assay 4); format: cell-based; details: SUDHL5 cells
Method: (§1) Induction of Caspase-3/7 Activity upon Treatment of Cells with Selected Compounds
(§2) The BH3-domain of MCL-1 sequesters pro-apoptotic proteins, thereby inhibiting apoptosis. In contrast, MCL-1 inhibitors are expected to antagonize this effect leading to an increase in apoptosis, which can be determined by measuring the activity of caspase-3/7.
(§3) The activity of caspase-3/7 was determined in DLBCL (Diffuse large B-cell lymphoma) cell lines (SUDHL5 and SUDHL10) upon treatment with different compounds, using the Caspase-Glo® 3/7 reagent from Promega (G8092).
(§4) Rim wells were excluded. The cells were incubated for 3 h hours in a humidified incubator at 37° C.
(§5) For the evaluation of the results, the background measured with “medium-only” was subtracted from all other values. […] The Bella DRC Master Sheet was used to calculate EC50s, with fixed C0=1 and Cl=plateau/max induction for the reference compound.

AMO-1 = test: Antiproliferation assay AMO-1 (Assay 7); format: cell-based; details: AMO-1 cells, CellTiter-Glo, single determinations, read-out: IC50 Antiproli AMO-1
Method: (§6) Assessment of the Anti-Proliferative Effect of Compounds in Different Cell Lines
(§7) The impact of compounds on the proliferation of different cell lines was assessed using the CellTiter-Glo® Luminescent Cell Viability reagent from Promega (G7573).
(§8) In parallel, cells were plated in a reference (day 0) plate for time zero determination.
(§9) Rim wells were excluded. The cells were incubated for 72 h hours in a humidified incubator at 37° C. The day 0 plate was measured by adding 30 μL/well of CTG solution (CellTiter-Glo® Luminescent Cell Viability reagent, Promega G7573) to time zero wells in the reference plate followed by a 10 minutes incubation and luminescence reading at 0.1 ms. using the PHERAstar FS microplate reader (BMG Labtech).
(§10) After 72 h incubation, the treated plates were measured in the same way as the day 0 plate mentioned above.

SUDHL5 [4] = test: Antiproliferation assay SUDHL5 (Assay 7); format: cell-based; details: SUDHL5 cells, CellTiter-Glo, median, read-out: IC50 Antiproli SUDHL5 [M] (median)
Method: as §6, §7, §8, §9, §10

SUDHL10 [5] = test: Induction of caspase-3/7 activity, SUDHL10 (Assay 4); format: cell-based; details: SUDHL10 cells
Method: as §1, §2, §3, §4, §5

A2780 = test: Antiproliferation assay A2780 (Assay 7); format: cell-based; details: A2780 cells, CellTiter-Glo, single determinations, read-out: IC50 Antiproli A2780
Method: as §6, §7, §8, §9, §10

MV-4-11 = test: Antiproliferation assay MV-4-11 (Assay 7); format: cell-based; details: MV-4-11 cells, CellTiter-Glo, single determinations, read-out: IC50 Antiproli MV-4-11
Method: as §6, §7, §8, §9, §10

[6] = Homo sapiens, SU-DHL-5, 3 h, Caspase-Glo 3/7, median
[7] = Homo sapiens, SU-DHL10, 3 h, Caspase-Glo 3/7, median

Chain of MCL-1 (Q07820 whole entry K194A/K197A/R201A, looked up): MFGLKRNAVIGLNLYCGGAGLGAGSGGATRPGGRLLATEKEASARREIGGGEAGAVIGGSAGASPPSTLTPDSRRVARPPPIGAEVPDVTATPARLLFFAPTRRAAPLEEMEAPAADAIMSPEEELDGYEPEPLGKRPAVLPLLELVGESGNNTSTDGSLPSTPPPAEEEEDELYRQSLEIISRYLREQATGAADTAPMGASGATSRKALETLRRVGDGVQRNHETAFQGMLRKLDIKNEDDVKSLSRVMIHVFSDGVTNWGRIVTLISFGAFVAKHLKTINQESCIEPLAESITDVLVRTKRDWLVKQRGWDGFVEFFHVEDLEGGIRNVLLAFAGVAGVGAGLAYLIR

SMILES: CCc1nn(C)c2c1-c1c(F)ccc3c(CCCOc4cccc5cc(F)ccc45)c(C(=O)O)n(c13)CCCCOC2 (single isomer, unassigned; enantiomer 2) [Example 40, 3-ethyl-4-fluoro-7-{3-[(6-fluoronaphthalen-1-yl)oxy]propyl}-1-methyl-1,10,11,12,13,15-hexahydropyrazolo[4′,3′:9,10][1,6]oxazacycloundecino[8,7,6-hi]indole-8-carboxylic acid-N-ethylethanamine salt (enantiomer 2)]
- IC50 (MCL-1): 0.04 µM
- IC50 (SUDHL5 [1]): 2.3e-05 M
- IC50 (SUDHL10 [2]): > 2.5e-05 M
- IC50 (MV-4-11; 72 h): 14.3 µM and 11.6 µM
- EC50 (SUDHL5 [3]; 3 h, Caspase-Glo 3/7, median): 21 µM
- IC50 (AMO-1; 72 h): > 33 µM
- IC50 (SUDHL5 [4]; 72 h): 1.4e-05 M
- EC50 (SUDHL10 [5]; 3 h, Caspase-Glo 3/7, median): > 33 µM
- IC50 (A2780; 72 h): 29.6 µM

SMILES: Cc1c2c(nn1C)CNCCCCn1c(C(=O)O)c(CCCOc3cccc4ccccc34)c3ccc(F)c-2c31 (single isomer, unassigned; enantiomer 2) [Example 49, 4-fluoro-2,3-dimethyl-7-{3-[(naphthalen-1-yl)oxy]propyl}-10,11,12,13,14,15-hexahydro-2H-pyrazolo[3′,4′:8,9][1,6]diazacycloundecino[10,11,1-hi]indole-8-carboxylic acid (enantiomer 2)]
- IC50 (MCL-1): 0.04 µM
- IC50 (SUDHL5 [1]): > 2.7e-05 M
- IC50 (SUDHL10 [2]): > 3.3e-05 M
- IC50 (MV-4-11; 72 h): 18.9 µM and 23.3 µM
- EC50 (SUDHL5 [3]; 3 h, Caspase-Glo 3/7, median): > 33 µM
- IC50 (AMO-1; 72 h): > 33 µM
- IC50 (SUDHL5 [4]; 72 h): 1e-05 M
- EC50 (SUDHL10 [5]; 3 h, Caspase-Glo 3/7, median): > 33 µM
- IC50 (A2780; 72 h): 15.1 µM

Further lines, with some results ahead:

- IC50 (MCL-1): 0.0014 µM
- EC50 (SUDHL5 [3]; [6]): 1.5 µM
- IC50 (SUDHL5 [4]; Homo sapiens, SU-DHL-5, 72 h): 2.2e-06 M
- EC50 (SUDHL10 [5]; [7]): 3.3 µM
- IC50 (A2780; Homo sapiens, A2780, 72 h): 10.2 µM
SMILES: CCc1c2c(nn1C)COCCCCn1c(C(=O)O)c(CCCOc3ccc(F)c4ccccc34)c3ccc(F)c-2c31 (racemic) [Example 26, (rac)-12-ethyl-13-fluoro-1-(3-((4-fluoronaphthalen-1-yl)oxy)propyl)-11-methyl-4,5,6,7,9,11-hexahydropyrazolo[4′,3′:9,10][1]oxa[6]azacycloundecino[8,7,6-hi]indole-2-carboxylic acid]
- IC50 (SUDHL5 [1]; Homo sapiens, SU-DHL-5, 5 h): 1.8e-06 M
- IC50 (SUDHL10 [2]; Homo sapiens, SU-DHL10, 5 h): 3.7e-06 M
- IC50 (AMO-1; Homo sapiens, AMO1, 72 h): 4.31 µM

- IC50 (MCL-1): 0.026 µM
- IC50 (MV-4-11; 72 h, listed as 08): 21.3 µM
- EC50 (SUDHL5 [3]; 3 h, Caspase-Glo 3/7, median): 30 µM
- IC50 (SUDHL5 [4]; 72 h): 1.5e-05 M
- EC50 (SUDHL10 [5]; 3 h, Caspase-Glo 3/7, median): > 33 µM
- IC50 (A2780; 72 h, listed as 08): 20 µM
SMILES: CCc1c2c(nn1C)COCCCCn1c(C(=O)O)c(CCCOc3cccc4ccccc34)c3ccc(F)c-2c31 (single isomer, unassigned; enantiomer 2) [Example 8, 3-ethyl-4-fluoro-2-methyl-7-{3-[(naphthalen-1-yl)oxy]propyl}-2,10,11,12,13,15-hexahydro-pyrazolo[4′,3′:9,10][1,6]oxazacycloundecino[8,7,6-hi]indole-8-carboxylic acid-N-ethylethanamine salt (enantiomer 2)]
- IC50 (SUDHL5 [1]): 2.7e-05 M
- IC50 (SUDHL10 [2]): > 3.3e-05 M

- IC50 (MCL-1): 0.017 µM
- EC50 (SUDHL5 [3]; 3 h, Caspase-Glo 3/7, median): 5.4 µM
- IC50 (SUDHL5 [4]; 72 h): 4e-06 M
- EC50 (SUDHL10 [5]; 3 h, Caspase-Glo 3/7, median): 14 µM
- IC50 (A2780; 72 h): 19.8 µM
SMILES: Cc1c2c(nn1C)COCCCCn1c(C(=O)O)c(CCCOc3cccc4cc(F)ccc34)c3ccc(F)c-2c31 (single isomer, unassigned; enantiomer 2) [Example 14, 4-fluoro-7-{3-[(6-fluoronaphthalen-1-yl)oxy]propyl}-2,3-dimethyl-2,10,11,12,13,15-hexahydro-pyrazolo[4′,3′:9,10][1,6]oxazacycloundecino[8,7,6-hi]indole-8-carboxylic acid-N-ethylethanamine salt (enantiomer 2)]
- IC50 (SUDHL5 [1]): 6e-06 M
- IC50 (SUDHL10 [2]): 1.2e-05 M
- IC50 (AMO-1; 72 h): 7.54 µM and 11.6 µM

- IC50 (MCL-1): 0.00084 µM
- IC50 (MV-4-11; Homo sapiens, MV4-11, 72 h): 13.4 µM
- EC50 (SUDHL5 [3]; [6]): 20 µM
- IC50 (SUDHL5 [4]; Homo sapiens, SU-DHL-5, 72 h): 6.1e-06 M
- EC50 (SUDHL10 [5]; [7]): > 33 µM
- IC50 (A2780; Homo sapiens, A2780, 72 h): > 33 µM
SMILES: Cc1c2c(nn1C)C[N+](C)(C)CCCCn1c(C(=O)O)c(CCCOc3cccc4ccccc34)c3ccc(F)c-2c31 [Example 50, 8-carboxy-4-fluoro-2,3,14,14-tetramethyl-7-[3-(1-naphthyloxy)propyl]-10,11,12,13,14,15-hexa-hydro-2H-pyrazolo[3′,4′:8,9][1,6]diazacycloundecino[10,11,1-hi]indol-14-ium trifluroacetate]
- IC50 (SUDHL5 [1]; Homo sapiens, SU-DHL-5, 5 h): 1.6e-05 M
- IC50 (SUDHL10 [2]; Homo sapiens, SU-DHL10, 5 h): > 3.3e-05 M

From patent US11286263B2, “Macrocyclic fluorine substituted indole derivatives” (The Broad Institute, Inc., priority 2017, dated 2022)
